Source: publication PMC7955776 (Investigational new drugs, 2020)

Experiments:
clinical = conditions: human, in vivo, iv, 80 mg/m2
[1] = human, in vivo, iv, 80 mg/m2
[2] = Paclitaxel plasma pharmacokinetics alone and in combination with RO4929097; conditions: 80 mg/m2 IV

- AUC(0-inf) (clinical): 4.8 ± 1.17 µg·h/mL
- half-life (clinical): 10.3 ± 2.5 h
- AUC INF [1]: 4.911 ± 1.078 µg·h/mL
- Half life [1]: 11.3 ± 2.5 h
- Paclitaxel PK alone (day -1) versus in combination with RO4929097 (day 15) [2]: No significant differences
SMILES: CC(=O)O[C@H]1C(=O)[C@@]2(C)[C@H]([C@H](OC(=O)c3ccccc3)[C@]3(O)C[C@H](OC(=O)[C@H](O)[C@@H](NC(=O)c4ccccc4)c4ccccc4)C(C)=C1C3(C)C)[C@]1(OC(C)=O)CO[C@@H]1C[C@@H]2O [Paclitaxel, paclitaxel]
